# From patent US4250170A, “Antibacterial agents Bu-2349A and B and method of using same” (Bristol-Myers Company, priority 1979, dated 1981)
# Like-named read-outs stand apart in the source and are kept apart here.
# Assays:
# [1] = test system: Escherichia coli Juhl (Ec-3); assay: MIC, two-fold agar dilution; format: cell-based; conditions: 18 h
# Method: (§1) The minimum inhibitory concentrations (MIC) of Bu-2349A and B were determined against a wide variety of bacteria by the two-fold agar dilution method. Mueller-Hinton agar medium was generally used for the determination of bacterial MIC except for species of Streptococcus, Neisseria and Hemophilus for which Gonococcus agar medium (GC agar, Nissui Co., Tokyo) was used. Gifu anaerobe agar medium (GAM agar, Eiken Co., Tokyo) was used for anaerobic bacteria. The MIC's were determined after overnight incubation at 37° C. with an initial inoculum equivalent to a 10^-4 dilution of an 18-hour culture for the aerobic and anaerobic bacteria, except for Streptococcus, Neisseria and Hemophilus for which a 10^-2 dilution was used.
# (§2) The influence of inoculum size on MIC was tested on Mueller-Hinton agar using an inoculum of […], 10^-2 or 10^-4 dilution of the overnight culture of test organisms.
# (§3) The effect of media pH on the MIC's of Bu-2349A was determined at three pH levels (6, 7 and 8) using Mueller-Hinton agar.
# (§4) The media effect on the MIC's of Bu-2349A was tested using four kinds of assay media: Mueller-Hinton agar (MHA), nutrient agar (NA), heart infusion agar (HIA) and brain heart infusion agar (BHIA). The pH was adjusted at 7 and a 10^-4 dilution of overnight culture was used for the inoculum.
# [2] = test system: Klebsiella pneumoniae (Kp-2); assay: MIC, two-fold agar dilution; format: cell-based; conditions: 18 h
# Method: as §1, §2, §3, §4
# [3] = test system: Proteus mirabilis (Pm-1); assay: MIC, two-fold agar dilution; format: cell-based
# Method: as §1, §2, §3, §4
# [4] = test system: Proteus morganii (Pg-1); assay: MIC, two-fold agar dilution; format: cell-based; conditions: Morganella morganii, 18 h
# Method: as §1, §2, §3, §4
# [5] = test system: Pseudomonas aeruginosa (Pa-3); assay: MIC, two-fold agar dilution; format: cell-based; conditions: 18 h
# Method: as §1, §2, §3, §4
# [6] = test system: Staphylococcus aureus 209P (Sa-1); assay: MIC, two-fold agar dilution; format: cell-based; conditions: 18 h
# Method: as §1, §2, §3, §4
# [7] = test system: Streptococcus viridans (Sv-1); assay: MIC, two-fold agar dilution; format: cell-based; conditions: 18 h, Table 3, GC agar, 10^-2 dilution
# [8] = test system: Enterobacter cloacae (El-35), AAC(3)-3; assay: MIC, two-fold agar dilution; format: cell-based; conditions: 18 h, Table 3, Mueller-Hinton agar, 10^-4 dilution, enzyme AAC(3)-3
# [9] = test system: Proteus vulgaris (Pv-1); assay: MIC, two-fold agar dilution; format: cell-based; conditions: 18 h, Table 3, Mueller-Hinton agar, 10^-4 dilution
# [10] = test system: Proteus rettgeri (Pr-2); assay: MIC, two-fold agar dilution; format: cell-based; conditions: Providencia rettgeri, 18 h; Table 3; Mueller-Hinton agar, 10^-4 dilution
# [11] = test system: Fusobacterium varium ATCC 8501 (Fv-1); assay: MIC against anaerobic bacteria; format: cell-based; conditions: ATCC8501, 18 h, Table 4, GAM Medium, pH 7
# [12] = test system: Acidoaminococcus fermentans ATCC 25085 (Ae-1); assay: MIC against anaerobic bacteria; format: cell-based; conditions: 18 h; Table 4; GAM Medium, pH 7
# [13] = test system: Clostridium chauvoei (Ch-1); assay: MIC against anaerobic bacteria; format: cell-based; conditions: 18 h, Table 4, GAM Medium, pH 7
# Method: as §1
# [14] = test system: Propionibacterium acnes (Pc-102); assay: MIC against anaerobic bacteria; format: cell-based; conditions: Cutibacterium acnes, 18 h; Table 4; GAM Medium, pH 7
# Method: as §1
# [15] = test system: Clostridium perfringens (Cp-1); assay: microbe, parasite or virus in culture; format: cell-based; conditions: 18 h, pH 7
# [16] = mouse blood level, paper disc-agar plate assay; format: in vivo; conditions: mice, im, 50 mg./kg.
# Method: Blood levels were determined in mice following intramuscular administration of Bu-2349A at a dose of 50 mg./kg. Blood samples were collected from orbital sinuses and assayed by the paper disc-agar plate method using B. subtilis PCI 219 as the test organism.
# [17] = Table 3, Mueller-Hinton agar, 10^-4 dilution
# [18] = pH 6, Table 6, Mueller-Hinton Agar, 10^-4 dilution, pH 6
# [19] = pH 7, Table 5, Mueller-Hinton Agar, pH 7, inoculum 10^0 dil.
# [20] = pH 7, Table 5, Mueller-Hinton Agar, pH 7, inoculum 10^-2 dil.
# [21] = pH 7, Table 5, Mueller-Hinton Agar, pH 7, inoculum 10^-4 dil.
# [22] = pH 7, Table 6, Mueller-Hinton Agar, 10^-4 dilution, pH 7
# [23] = pH 7, Table 7, pH 7, 10^-4 dilution, BHIA
# [24] = pH 7, Table 7, pH 7, 10^-4 dilution, HIA
# [25] = pH 7, Table 7, pH 7, 10^-4 dilution, MHA
# [26] = pH 7, Table 7, pH 7, 10^-4 dilution, NA
# [27] = pH 8, Table 6, Mueller-Hinton Agar, 10^-4 dilution, pH 8
smiles,measurement,setting,value
C=C1OC(OC2C(CO)OC(Oc3ccc(C(=O)NCCCNCCCCNCCCCN)cc3)C2O)C(O)C(OC2OC(CO)C(OC3OC(C)C(N)C(O)C3NC(=O)C(C)N)C(O)C2O)C1O (stereo not shown) [Bu-2349A],MIC,[1]; [17],1.6 µg/mL
same,MIC,[1]; [18],25 µg/mL
same,MIC,[1]; [19],6.3 µg/mL
same,MIC,[1]; [20],3.1 µg/mL
same,MIC,[1]; [21],3.1 µg/mL
same,MIC,[1]; [22],3.1 µg/mL
same,MIC,[1]; [23],6.3 µg/mL
same,MIC,[1]; [24],1.6 µg/mL
same,MIC,[1]; [25],3.1 µg/mL
same,MIC,[1]; [26],3.1 µg/mL
same,MIC,[1]; [27],1.6 µg/mL
same,MIC,"[2]; Table 3, Mueller-Hinton agar, 10^-4 dilution, read-out: MIC",3.1 µg/mL
same,MIC,"[2]; pH 6, Table 6, Mueller-Hinton Agar, 10^-4 dilution, pH 6, read-out: MIC",50 µg/mL
same,MIC,[2]; pH 7,12.5 µg/mL
same,MIC,"[2]; pH 7, Table 5, Mueller-Hinton Agar, pH 7, inoculum 10^-2 dil., read-out: MIC",6.3 µg/mL
same,MIC,"[2]; pH 7, Table 5, Mueller-Hinton Agar, pH 7, inoculum 10^-4 dil., read-out: MIC",3.1 µg/mL
same,MIC,"[2]; pH 7, Table 6, Mueller-Hinton Agar, 10^-4 dilution, pH 7, read-out: MIC",3.1 µg/mL
same,MIC,"[2]; pH 7, Table 7, pH 7, 10^-4 dilution, BHIA, read-out: MIC",3.1 µg/mL
same,MIC,"[2]; pH 7, Table 7, pH 7, 10^-4 dilution, HIA, read-out: MIC",1.6 µg/mL
same,MIC,"[2]; pH 7, Table 7, pH 7, 10^-4 dilution, MHA, read-out: MIC",3.1 µg/mL
same,MIC,"[2]; pH 7, Table 7, pH 7, 10^-4 dilution, NA, read-out: MIC",1.6 µg/mL
same,MIC,"[2]; pH 8, Table 6, Mueller-Hinton Agar, 10^-4 dilution, pH 8, read-out: MIC",3.1 µg/mL
same,MIC,"[3]; Proteus mirabilis, 18 h, Table 3, Mueller-Hinton agar, 10^-4 dilution, read-out: MIC",6.3 µg/mL
same,MIC,"[3]; Proteus mirabilis, 18 h, pH 6, Table 6, Mueller-Hinton Agar, 10^-4 dilution, pH 6, read-out: MIC",> 50 µg/mL
same,MIC,"[3]; Proteus mirabilis, 18 h, pH 7",12.5 µg/mL
same,MIC,"[3]; Proteus mirabilis, 18 h, pH 7, Table 5, Mueller-Hinton Agar, pH 7, inoculum 10^0 dil., read-out: MIC",50 µg/mL
same,MIC,"[3]; Proteus mirabilis, 18 h, pH 7, Table 5, Mueller-Hinton Agar, pH 7, inoculum 10^-2 dil., read-out: MIC",25 µg/mL
same,MIC,"[3]; Proteus mirabilis, 18 h, pH 7, Table 7, pH 7, 10^-4 dilution, HIA, read-out: MIC",6.3 µg/mL
same,MIC,"[3]; Proteus mirabilis, 18 h, pH 7, Table 7, pH 7, 10^-4 dilution, MHA, read-out: MIC",6.3 µg/mL
same,MIC,"[3]; Proteus mirabilis, 18 h, pH 7, Table 7, pH 7, 10^-4 dilution, NA, read-out: MIC",3.1 µg/mL
same,MIC,"[3]; Proteus mirabilis, 18 h, pH 8",12.5 µg/mL
same,MIC,"[3]; Table 6, Mueller-Hinton Agar, 10^-4 dilution, pH 7",12.5 µg/mL
same,MIC,"[3]; Table 7, pH 7, 10^-4 dilution, BHIA",12.5 µg/mL
same,MIC,[4]; [17],25 µg/mL
same,MIC,[4]; [18],> 50 µg/mL
same,MIC,[4]; [19],> 50 µg/mL
same,MIC,[4]; [20],50 µg/mL
same,MIC,[4]; [21],25 µg/mL
same,MIC,[4]; [22],25 µg/mL
same,MIC,[4]; [23],25 µg/mL
same,MIC,[4]; [24],25 µg/mL
same,MIC,[4]; [25],25 µg/mL
same,MIC,[4]; [26],6.3 µg/mL
same,MIC,[4]; [27],25 µg/mL
same,MIC,[5]; [17],25 µg/mL
same,MIC,[5]; [18],> 50 µg/mL
same,MIC,[5]; [19],> 50 µg/mL
same,MIC,[5]; [20],50 µg/mL
same,MIC,[5]; [21],25 µg/mL
same,MIC,[5]; [22],25 µg/mL
same,MIC,[5]; [23],25 µg/mL
same,MIC,[5]; [24],12.5 µg/mL
same,MIC,[5]; [25],50 µg/mL
same,MIC,[5]; [26],6.3 µg/mL
same,MIC,[5]; [27],12.5 µg/mL
same,MIC,[6]; [17],3.1 µg/mL
same,MIC,[6]; [18],50 µg/mL
same,MIC,[6]; [19],6.3 µg/mL
same,MIC,[6]; [20],3.1 µg/mL
same,MIC,[6]; [21],3.1 µg/mL
same,MIC,[6]; [22],3.1 µg/mL
same,MIC,[6]; [23],3.1 µg/mL
same,MIC,[6]; [24],1.6 µg/mL
same,MIC,[6]; [25],3.1 µg/mL
same,MIC,[6]; [26],1.6 µg/mL
same,MIC,[6]; [27],1.6 µg/mL
same,MIC,[7],> 100 µg/mL
same,MIC,[8],3.1 µg/mL
same,MIC,[9],1.6 µg/mL
same,MIC,[10],0.8 µg/mL
same,MIC,[11],> 100 µg/mL
same,MIC,[12],50 µg/mL
same,MIC,[13],> 100 µg/mL
same,MIC,[14],12.5 µg/mL
same,MIC,[15],> 100 µg/mL
same,antibiotic activity in blood after 2 hours,[16]; after 2 hours,No antibiotic activity was detected
same,elimination from the blood stream,[16]; after the peak,rapid elimination from the blood stream
same,concentration at 0.25 h,"[16]; mouse, blood, 15 minutes",15000 ng/mL
same,concentration at 0.5 h,"[16]; mouse, blood, 30 minutes",12000 ng/mL
same,concentration at 1 h,"[16]; mouse, blood, 60 minutes",2800 ng/mL
same,concentration at 2 h,"[16]; mouse, blood, 120 minutes",> 1000 ng/mL
same,Tmax,"[16]; mouse, blood, read-out: time of peak blood level (converted)",15 min
